Test results from patent US6313179A, “Treatment of hyperproliferative skin disorders with C18 to C20 aliphatic alcohols” (Avanir Pharmaceuticals, priority 1998, dated 2001).
Where “and” joins values, the source holds several entries; their conditions need not be identical. Equal values may be shown once. Read-outs that look alike come from different tables or passages of the source.

Key:
[1] = tested on: normal skin fibroblast (ATCC CRL 1900) cells; experiment: Radiolabeled n-docosanol binding to normal skin fibroblasts (Example 3); format: cell-based; conditions: Table 4, n-[1-14C]docosanol 3 mM, 24 hours
Procedure: (§1) The following experiment examined the effect of n-docosanol on cell proliferation and quantitation of n-[1-^14 C]docosanol binding to keloid, Vero (normal African green monkey kidney; ATCC CCL 81) and normal skin fibroblast (ATCC CRL 1900) cells.
(§2) Human keloid fibroblasts, normal control skin fibroblasts and Vero cells were obtained from ATCC. n-Docosanol (30 mM) was suspended in Pluronic F-68 (1.2 mM) as described previously (Katz et al., ibid). A vehicle control was prepared using the same procedure except for the omission of n-docosanol. Radiolabeled n-[1-^14 C] docosanol suspension was prepared as described by Katz et al. (ibid.). Cells were resuspended in 1.2×10^6 cells/ml in DMEM supplemented with 10% fetal calf serum, sodium pyruvate, L-glutamine and penicillin-streptomycin. Cell suspension (0.5 ml) was added to each 35 mm well containing 1.3 ml media, followed by addition of 0.2 ml radiolabeled n-docosanol suspension (final n-docosanol concentration=3 mM). After 24 hours at 37° C. in humidified 10% CO2, the suspension was removed, wells were washed extensively with saline and cells were solubilized for scintillation counting by incubation with 0.5 ml trypsin for 15 min at 37° C. Solubilized cells were counted in a Beckman LS6000 scintillation counter. […] The number of viable cells was determined by trypan blue staining.

[2] = tested on: Human fetal lung cells (HFL; ATCC CCL 153); experiment: Comparison of n-docosanol effect between keloid and normal cells: human fetal lung cells (Example 2); format: cell-based; conditions: 15 mM; for activity at 15000 µM: Homo sapiens, compared to cells incubated with no addition, read-out: % control; for activity at 15000 µM / cells/well: Table 3
Procedure: Human keloid fibroblasts were obtained from the American Type Culture Collection (Rockville, Md.) (CRL 1762). n-Docosanol (300 mM) was suspended in the nonionic surfactant Pluronic F-68 (12 mM) as described previously (Katz et al., Proc. Natl. Acad. Sci. U.S.A., 88:10825-10829, 1991, hereby incorporated by reference). A vehicle control was prepared using the same procedure except n-docosanol was omitted. Keloid cells (2.7×10^4per well) were added to 16 mm wells containing DMEM supplemented with 10% fetal calf serum (FCS), sodium pyruvate, L-glutamine and penicillin/streptomycin. n-Docosanol (15 mM) or the corresponding Pluronic F-68 control (0.6 mM) was added (total volume=2.0 ml). Cells were harvested after incubation for 72 and 168 hours at 37° C. in a humidified 10% CO2 incubator. The number of viable cells was determined by trypan blue staining.
Human fetal lung cells (HFL; ATCC CCL 153) and keloid cells (5×10^4 cells/well) were separately added to 16 mm wells and treated as described in Example 1. The results are shown in Tables 2 (keloid cells) and 3 (human fetal lung cells).

[3] = tested on: cutaneous Kaposi's sarcoma; experiment: Treatment of Kaposi's sarcoma with 10% n-docosanol cream (Example 6); format: in vivo, Human; conditions: 10% cream
Procedure: HIV-positive male patients presenting with treatment-resistant cutaneous Kaposi's sarcoma were treated for 28 days, 5 times daily with the 10% n-docosanol cream formulation described in Example 4. Response to treatment was evaluated according to lesion dimensions, color of the lesion and the type of lesion (hard, soft or nodule). The data were recorded on intermittent days throughout the 28 days of the study and values were compared to baseline observations made on Day 1. Three target lesions were evaluated in each patient. Thus far, five patients have completed the study.

[4] = tested on: Vero (normal African green monkey kidney; ATCC CCL 81) cells; experiment: Radiolabeled n-docosanol binding to Vero cells (Example 3); format: cell-based; conditions: Table 4, n-[1-14C]docosanol 3 mM, 24 hours
Procedure: as §1, §2

[5] = tested on: Vero (normal African green monkey kidney; ATCC CCL 81) cells; experiment: Proliferation study, Vero cells (Example 3); format: cell-based; conditions: 3 mM
Procedure: as §1
Human keloid fibroblasts, normal control skin fibroblasts and Vero cells were obtained from ATCC. n-Docosanol (30 mM) was suspended in Pluronic F-68 (1.2 mM) as described previously (Katz et al., ibid). A vehicle control was prepared using the same procedure except for the omission of n-docosanol. Radiolabeled n-[1-^14 C] docosanol suspension was prepared as described by Katz et al. (ibid.). Cells were resuspended in 1.2×10^6 cells/ml in DMEM supplemented with 10% fetal calf serum, sodium pyruvate, L-glutamine and penicillin-streptomycin. Cell suspension (0.5 ml) was added to each 35 mm well containing 1.3 ml media, followed by addition of 0.2 ml radiolabeled n-docosanol suspension (final n-docosanol concentration=3 mM). After 24 hours at 37° C. in humidified 10% CO2, the suspension was removed, wells were washed extensively with saline and cells were solubilized for scintillation counting by incubation with 0.5 ml trypsin for 15 min at 37° C. Solubilized cells were counted in a Beckman LS6000 scintillation counter. Samples were corrected for nonspecific binding to plates by subtracting values obtained in control wells lacking cells. To determine cell number, duplicate plates were treated with non-radiolabeled n-docosanol or control suspension at the same concentration or were left untreated. The number of viable cells was determined by trypan blue staining.

herpes simplex virus = conditions: suspended in a surfactant; cell culture assays; cited from earlier work
[6] = concentrations up to 300 mM; cited from earlier work
[7] = tested on: respiratory syncytial virus; conditions: suspended in a surfactant; cell culture assays; cited from earlier work
[8] = one patient, Day 15 and thereafter

Compound: CCCCCCCCCCCCCCCCCCCCCCO [n-docosanol]
- Binding per 10^6 cells [1]: 15.6 μg
- number of human fetal lung cells (in words) ([2]; at both time intervals (72 and 168 hours)): significantly increased
- activity at 15000 µM ([2]; 72 hours): 116%
- activity at 15000 µM ([2]; 168 hours): 250%
- cells/well ([2]; 72 hours): 5.8 × 10^4 cells/well
- cells/well ([2]; 168 hours): 20 × 10^4 cells/well
- patients with a response (reduction in the size of the lesions) ([3]; Day 28 vs Day 1): three out of five
- lesions with reduction in size, two patients ([3]; Day 28 vs Day 1, each of two patients): 3 out of 3
- lesions with reduction in size, one patient ([3]; Day 28 vs Day 1, one patient): 2 out of 3
- color changes in lesions ([3]; all five patients, all lesions): color changes in all lesions to a lighter color
- increase in lesion size ([3]; any of the 15 lesions studied): not observed
- disappearance of lesion ([3]; by Day 3, one lesion): One lesion completely disappeared by Day 3
- clinically observed swelling [3, 8]: decrease in the clinically observed swelling
- pain of lesions [3, 8]: less painful
- Day 28 Color ([3]; Table 5, 5 times daily, 28 days, per patient and lesion): pale and gone and pale pink and very pale and pink and tan and lighter
- percent reduction in lesion size ([3]; Table 5, Day 28 vs Day 1, 5 times daily, per patient and lesion): 75% and gone and 74% and 19% and 20% and 0% and 28% and 10%
- Binding per 10^6 cells [4]: 8.9 μg
- number of Vero cells (in words) ([5]; one day incubation): not decreased
- activity at 3000 µM ([5]; Chlorocebus sabaeus, Table 4, Vero, 24 hours, compared to cells incubated with no addition, read-out: % ctrl): 151%
- No. cells ([5]; Table 4, Vero, 24 hours): 5.9 × 10^5 cells
- antiviral activity (herpes simplex virus): potent antiviral activity
- cytotoxicity [6]: not cytotoxic in concentrations up to 300 mM
- antiviral activity [7]: potent antiviral activity
